Measured values taken from PubChem BioAssay (NCI).
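Values below derive from 48-hour exposures of cells grown in 96-well plates, with endpoints linearly interpolated between the two concentrations bracketing the appropriate inhibition level. GI50: concentration for 50% inhibition of growth. At the TGI there is no net growth.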

Key:
Assay in all cases: inhibition of tumour cell growth, NCI panel, 48 h
[1] = system: SF-295 CNS
[2] = system: HCT-116 colon
[3] = system: HL-60(TB) leukemia
[4] = system: LOX IMVI melanoma
[5] = system: T-47D breast
[6] = system: SF-268 CNS
[7] = system: SK-OV-3 ovarian
[8] = system: MALME-3M melanoma
[9] = system: U251 CNS
[10] = system: ACHN renal

SMILES	GI50 [1]	TGI [1]	GI50 [2]	TGI [2]	GI50 [3]	GI50 [4]	TGI [4]	GI50 [5]	TGI [5]	GI50 [6]	TGI [6]	GI50 [7]	TGI [7]	GI50 [8]	TGI [8]	GI50 [9]	TGI [9]	GI50 [10]	TGI [10]	TGI [3]
COc1ccc(-c2ccc(/C=C/C(=O)NO)cc2)cc1	0.23 µM	2.01 µM	0.451 µM	11.4 µM	0.269 µM	0.417 µM	2.61 µM	1.47 µM	5.58 µM	0.982 µM	5.58 µM	1.18 µM	3.21 µM	0.65 µM	11.8 µM	1.14 µM	3.08 µM	1.07 µM	4.48 µM	–
COc1ccc(OC)c(-c2nc3sccn3c2/C=C2/C(=O)Nc3ccc(Cl)cc32)c1	19.4 µM	51.5 µM	29.7 µM	> 100 µM	31.2 µM	18.2 µM	40.5 µM	26.6 µM	70.1 µM	30.6 µM	> 100 µM	13.6 µM	41.5 µM	30.8 µM	80.8 µM	24.9 µM	74.1 µM	30.8 µM	> 100 µM	76 µM
CN(C)C[C@H]1CC[C@@H](CN(C)C)C1=O	–	> 50 µM	–	15.6 µM	–	–	14.2 µM	–	23.6 µM	–	25.1 µM	–	> 50 µM	–	7.25 µM	–	> 40.4 µM	–	15.1 µM	4.1 µM
COc1ccccc1/C=C\c1cnnc2ccccc12	–	> 10 µM	–	> 10 µM	–	–	> 10 µM	–	> 10 µM	–	> 10 µM	–	> 10 µM	–	> 10 µM	–	> 10 µM	–	> 10 µM	> 10 µM
NC(=O)CCC(NC(=O)OCc1ccccc1)C(=O)OCC(=O)c1ccccc1 (stereo not drawn)	> 100 µM	> 100 µM	> 100 µM	> 100 µM	> 100 µM	> 100 µM	> 100 µM	> 100 µM	> 100 µM	> 100 µM	> 100 µM	> 100 µM	> 100 µM	> 100 µM	> 100 µM	> 100 µM	> 100 µM	> 100 µM	> 100 µM	> 100 µM
CC1(C)N=C(N)N=C(N)N1c1cccc(C#N)c1	2.05 µM	24.1 µM	0.364 µM	> 100 µM	3.46 µM	0.605 µM	> 100 µM	> 100 µM	> 100 µM	0.692 µM	> 100 µM	21.2 µM	> 100 µM	16.7 µM	> 100 µM	0.752 µM	> 100 µM	4.09 µM	> 100 µM	> 100 µM
CC(=O)OCC1OC(OC2C(COC(C)=O)OC(OCCC[S-])C(OC(C)=O)C2OC(C)=O)C(OC(C)=O)C(OC(C)=O)C1OC(C)=O.[Au+].c1ccc(CN2[CH-]N(Cc3ccccc3)C(c3ccccc3)=C2c2ccccc2)cc1 (stereo not drawn)	2.14 µM	7.3 µM	2.72 µM	10.9 µM	2.49 µM	3.42 µM	13.6 µM	3.28 µM	18.5 µM	5.2 µM	24.9 µM	3.06 µM	12.6 µM	2.19 µM	6.56 µM	2.77 µM	7.47 µM	2.9 µM	10.6 µM	6.43 µM
CN(C)CCCNc1nn2c(=O)c3ccccc3nc2c2ccccc12	3.86 µM	24.5 µM	3.72 µM	15.7 µM	18.1 µM	3.8 µM	17.2 µM	12.7 µM	33.6 µM	7.25 µM	37.9 µM	5.43 µM	22.8 µM	11.8 µM	29.8 µM	10.8 µM	26.5 µM	3.75 µM	15 µM	72.7 µM
O=P(Oc1ccc(Cl)cc1)(Oc1ccc(Cl)cc1)N1CC1	–	> 10 µM	–	–	–	–	> 10 µM	–	> 10 µM	–	> 10 µM	–	> 10 µM	–	> 10 µM	–	> 10 µM	–	> 10 µM	> 10 µM
COc1ccc(/C=C/c2c(C(=O)/C=C/c3ccc(Cl)cc3)c(C)nc3ccccc23)cc1	1.72 µM	3.61 µM	0.799 µM	2.19 µM	2.15 µM	1.51 µM	2.9 µM	1.7 µM	5.72 µM	1.98 µM	4.56 µM	2.82 µM	11.4 µM	1.69 µM	3.21 µM	1.75 µM	3.55 µM	1.55 µM	2.97 µM	5.62 µM
COc1cc(C)c(C(=O)O[C@H]2[C@H](O[C@H]3[C@@H](O)COC(O[C@H]4C[C@H]5[C@@H]6CC=C7C[C@@H](O)CC[C@]7(C)[C@H]6CC[C@]5(C)[C@H]4[C@H](C)C(=O)CCC(C)C)[C@@H]3OC(C)=O)OC[C@@H](O)[C@@H]2O)c(C)c1 (stereo partly drawn)	< 0.01 µM	< 0.01 µM	< 0.01 µM	2.29 µM	0.016 µM	< 0.01 µM	0.0183 µM	0.0249 µM	16.7 µM	< 0.01 µM	2.92 µM	0.141 µM	2.73 µM	0.0257 µM	5.89 µM	< 0.01 µM	12.8 µM	0.0767 µM	18.6 µM	20 µM
